Data on six compounds can be found in patent publication EP0071535B1, “(4-(2 and/or 3-Thienylacetamido)-phenoxy)-hydroxyaminopropanes, their preparation, their therapeutic use and intermediates” (CARPIBEM (CENTRE D'ACTIVITE ET DE RECHERCHE PHARMACEUTIQUE …, priority 1981, dated 1983).

Test [1] has as its system effets β1 (augmentation de la force contractile du myocarde) de l'isoprénaline. Put plainly: β-blocking activity: inhibition of the β1 effects of intravenous isoprenaline in anaesthetised dogs. The test is classed as in vivo, chiens. The following applies: dog; for inhibition at 0.001 mg/kg / inhibition at 0.01 mg/kg / inhibition at 0.1 mg/kg / inhibition at 0.003 mg/kg: Canis lupus familiaris, iv, inhibition given with negative sign, read-out: % d'inhibition des effets β1^(+) de l'Isoprénaline; for inhibition at 0.001 mg/kg: 0,001 mg/kg I.V.; for inhibition at 0.01 mg/kg: 0,010 mg/kg I.V.; for inhibition at 0.1 mg/kg: 0,100 mg/kg I.V.; for inhibition at 0.003 mg/kg: 0,003 mg/kg I.V. As to the method: (§1) Des chiens tout-venants mâles ou femelles sont anesthésiés au mébubarbital sodique (30 mg/kg I.V.) et ventilés artificiellement par une pompe Pesty RPP. Ils sont supplémentés en oxygène.
(§2) On mesure: • - la pression carotidienne systolique et diastolique • - la force contractile du myocarde.
(§3) Les signaux sont amplifiés et enregistrés sur Dynograph Beckman.
(§4) L'activité β bloquante adrénergique a été étudiée vis-à-vis des effets β1 (augmentation de la force contractile du myocarde) et des effets P2 (diminution de la pression artérielle disstolique) de l'isoprénaline administrée par voie intraveineuse.
(§5) On calcule le pourcentsge d'inhibition des effets β1 et des effets β2 de l'isoprénaline en fonction des doses (mg.kg I.V.) des différents exemples.
(§6) Les exemples sont injectés dans le veine saphène aux doses (exprimées en base) de: 0,0003 0,001 0,003 0,01 0,1 1,0 et 4,0 ou 8,0 mg.kg-1.

Test [2] deals with effets β2 (diminution de la pression artérielle diastolique) de l'isoprénaline. Put plainly: β-blocking activity: inhibition of the β2 effects of intravenous isoprenaline in anaesthetised dogs. The test is classed as in vivo, chiens. Particulars: dog; for inhibition at 0.001 mg/kg / inhibition at 0.01 mg/kg / inhibition at 0.1 mg/kg / inhibition at 0.003 mg/kg: Canis lupus familiaris, iv, inhibition given with negative sign, read-out: % d'inhibition des effets β2^⊕ de l'Isoprénaline; for inhibition at 0.001 mg/kg: 0,001 mg/kg I.V.; for inhibition at 0.01 mg/kg: 0,010 mg/kg I.V.; for inhibition at 0.1 mg/kg: 0,100 mg/kg I.V.; for inhibition at 0.003 mg/kg: 0,003 mg/kg I.V. The procedure: as §1, §2, §3, §4, §5, §6

Test [3] concerns rat génétiquement hypertendu: Rat OKAMOTO. Put plainly: Antihypertensive activity in spontaneously hypertensive rats (tail-cuff systolic pressure and heart rate after oral dosing). The class given is in vivo. The procedure:
Des rats mâles âgés de 13 à 21 semaines présentant une hypertension spontanée génétiquement transmissible (souche OKAMOTO provenance IFFA CREDO) sont placés dans une enceinte thermostatée à 38°C. Les rats sont laissés en situation libre. La pression artérielle est mesurée par un sphygmomanomètre Narco Biosystem. Un manchon est placé à la base de la queue et un détecteur enregistre le pouls en aval du manchon. Celui-ci est gonflé jusqu'à suppression du pouls il est ensuite progressivement dégonflé. La pression mesurée à la reprise des battements cardiaques est la pression artérielle systolique. On calcule la fréquence cardiaque à partir de l'enregistrement du pouls artériel. Les produits à étudiar sont mis en suspension el administrés par voie orale sous un volume de 1 ml pour 100 g de poids corporel. Les mesures sont répétées à intervalles réguliers.
Les valeurs moyennes avant traitement pour les différents lots de rats sont pour la pression artérielle systolique de 190 à 200 mmHg et pour la fréquence cardiaque de 305 à 350 battements par minute.
Le tableau III ci-après donne la moyenne des variations de la pression systolique (mmHg) de la fréquence cardisque (battements/minute) et les écarts type à la moyenne obtenus 1 heure 3 heures et 5 heures après administration orale.

Where [4] appears, read: 0.1 mg.kg^-1 voie intraveineuse.
The mark [5] stands for this setting: 1.0 mg.kg^-1 voie intraveineuse.
The mark [6] stands for this setting: 8.0 mg.kg^-1 voie intraveineuse.

`CC(C)NCC(O)COc1ccc(NC(=O)Cc2ccsc2)cc1C#N` (stereo not shown) [exemple 10, 1-[2-cyano 4-(3-thiénylacétamido)phénoxy] 3-isopropylamino 2-propanol]: in test [1], the inhibition – broadly, the change of the read-out against control, counted positive when it falls – at 0.001 mg/kg is -22%; the inhibition at 0.01 mg/kg is -47%; the inhibition at 0.1 mg/kg was -91%. In test [2], the inhibition at 0.001 mg/kg is -21%, the inhibition at 0.01 mg/kg was -33% and the inhibition at 0.1 mg/kg is -39%. Also, in test [3] (128 mg.kg^-1 V.O), the “Fréquence cardiaque Δ (battements/min) T+1 heure m (sm)” value is “+25 (15) battements/min”, the “Pression systolique Δ (mmHg) T+1 heure m (sm)” value is -13 (12) mmHg, the “Fréquence cardiaque Δ (battements/min) T+3 heures m (sm)” value was “+28 (7) battements/min” and the “Pression systolique Δ (mmHg) T+3 heures m (sm)” value is listed as -5 (9) mmHg. In test [3] (128 mg.kg^-1 V.O), the “Fréquence cardiaque Δ (battements/min) T+5 heures m (sm)” value is reported as “+25 (7) battements/min” and the “Pression systolique Δ (mmHg) T+5 heures m (sm)” value was -26 (8) mmHg.

As to `C=CCc1cc(NC(=O)Cc2cccs2)ccc1OCC(O)CNC(C)(C)C` (stereo not shown) [exemple 11, 1-[2-allyl 4-(2-thiénylacétamido)phénoxy] 3-ter-butylamino 2-propanol], the “Pourcentages d'inhibition des effets β1 de l'Isoprénaline” value in test [1] (0.001 mg.kg^-1 voie intraveineuse) worked out at 11%. Besides, the “Pourcentages d'inhibition des effets β1 de l'Isoprénaline” value in test [1] (0.003 mg.kg^-1 voie intraveineuse) came out at 37%. In test [1] (0.01 mg.kg^-1 voie intraveineuse), the “Pourcentages d'inhibition des effets β1 de l'Isoprénaline” value is 70%. In addition, the “Pourcentages d'inhibition des effets β1 de l'Isoprénaline” value in test [1] (setting [4]) was 100%. The “Pourcentages d'inhibition des effets β1 de l'Isoprénaline” value in test [1] (setting [5]) is given as 100%. The “Pourcentages d'inhibition des effets β1 de l'Isoprénaline” value in test [1] (setting [6]) worked out at 100%. Besides, in test [1], the inhibition at 0.001 mg/kg is -11%, the inhibition at 0.003 mg/kg was -37%, the inhibition at 0.01 mg/kg is -70% and the inhibition at 0.1 mg/kg is -100%. In addition, the “Pourcentages d'inhibition des effets β2 de l'Isoprénaline” value in test [2] (setting [4]) amounted to 17%. The “Pourcentages d'inhibition des effets β2 de l'Isoprénaline” value in test [2] (setting [5]) stood at 77%. For the same compound, the “Pourcentages d'inhibition des effets β2 de l'Isoprénaline” value in test [2] (setting [6]) was 100%. In test [2], the inhibition at 0.001 mg/kg is 0%, the inhibition at 0.003 mg/kg is 0%, the inhibition at 0.01 mg/kg is 0% and the inhibition at 0.1 mg/kg is -17%. Besides, in test [3] (64 mg.kg^-1 V.O), the “Fréquence cardiaque Δ (battements/min) T+1 heure m (sm)” value is “+7 (8) battements/min”, the “Pression systolique Δ (mmHg) T+1 heure m (sm)” value is -54 (1) mmHg, the “Fréquence cardiaque Δ (battements/min) T+3 heures m (sm)” value is on record as “+10 (9) battements/min” and the “Pression systolique Δ (mmHg) T+3 heures m (sm)” value is given as -49 (10) mmHg. Further, in test [3] (64 mg.kg^-1 V.O), the “Fréquence cardiaque Δ (battements/min) T+5 heures m (sm)” value was 0 (9) battements/min and the “Pression systolique Δ (mmHg) T+5 heures m (sm)” value is recorded as -44 (11) mmHg.

Turning to `C=CCc1cc(NC(=O)Cc2ccsc2)ccc1OCC(O)CNC(C)(C)C` (stereo not shown) [exemple 38, 1-[2-allyl 4-(3-thiénylacétamido)phénoxy] 3-terbutylamino 2-propanol], in test [1], the inhibition at 0.001 mg/kg was -5%, the inhibition at 0.003 mg/kg was -35%, the inhibition at 0.01 mg/kg is -73% and the inhibition at 0.1 mg/kg was -100%. In test [2], the inhibition at 0.001 mg/kg was -4%, the inhibition at 0.003 mg/kg was -4%, the inhibition at 0.01 mg/kg is -6% and the inhibition at 0.1 mg/kg is -27%. For the same compound, in test [3] (64 mg.kg^-1 V.O), the “Fréquence cardiaque Δ (battements/min) T+1 heure m (sm)” value was “+39 (9) battements/min”, the “Pression systolique Δ (mmHg) T+1 heure m (sm)” value was -31 (5) mmHg, the “Fréquence cardiaque Δ (battements/min) T+3 heures m (sm)” value is recorded as “+21 (9) battements/min” and the “Pression systolique Δ (mmHg) T+3 heures m (sm)” value is on record as -26 (5) mmHg. In test [3] (64 mg.kg^-1 V.O), the “Fréquence cardiaque Δ (battements/min) T+5 heures m (sm)” value was “+29 (13) battements/min” and the “Pression systolique Δ (mmHg) T+5 heures m (sm)” value was -34 (7) mmHg.

Take `CC(C)(C)NCC(O)COc1ccc(NC(=O)Cc2cccs2)cc1Br` (stereo not shown) [exemple 39, 1-[2-bromo 4-(2-thiénylacétamido)phénoxy] 3-terbutylamino 2-propanol]: in test [1], the inhibition at 0.001 mg/kg is -11%, the inhibition at 0.003 mg/kg was -65%, the inhibition at 0.01 mg/kg was -89% and the inhibition at 0.1 mg/kg is -100%. Besides, in test [2], the inhibition at 0.001 mg/kg was determined as 0%, the inhibition at 0.003 mg/kg was determined as 0%, the inhibition at 0.01 mg/kg is -5% and the inhibition at 0.1 mg/kg was -49%. Besides, in test [3] (128 mg.kg^-1 V.O), the “Fréquence cardiaque Δ (battements/min) T+1 heure m (sm)” value is “+47 (15) battements/min”, the “Pression systolique Δ (mmHg) T+1 heure m (sm)” value is listed as -33 (9) mmHg, the “Fréquence cardiaque Δ (battements/min) T+3 heures m (sm)” value is “+56 (4) battements/min” and the “Pression systolique Δ (mmHg) T+3 heures m (sm)” value was -34 (11) mmHg. Also, in test [3] (128 mg.kg^-1 V.O), the “Fréquence cardiaque Δ (battements/min) T+5 heures m (sm)” value is “+47 (4) battements/min” and the “Pression systolique Δ (mmHg) T+5 heures m (sm)” value is -43 (9) mmHg.

For the compound `CC(C)NCC(O)COc1ccc(NC(=O)Cc2cccs2)cc1Br` (stereo not shown) [exemple 40, 1-[2-bromo 4-(2-thiénylacétamido)phénoxy] 3-isopropylamino 2-propanol], in test [1], the inhibition at 0.001 mg/kg was determined as 0%, the inhibition at 0.003 mg/kg is -19%, the inhibition at 0.01 mg/kg was -53% and the inhibition at 0.1 mg/kg was -93%. In test [2], the inhibition at 0.001 mg/kg amounted to 0%, the inhibition at 0.003 mg/kg worked out at 0%, the inhibition at 0.01 mg/kg came to 0% and the inhibition at 0.1 mg/kg was -4%. Besides, in test [3] (128 mg.kg^-1 V.O), the “Fréquence cardiaque Δ (battements/min) T+1 heure m (sm)” value was “+23 (23) battements/min”, the “Pression systolique Δ (mmHg) T+1 heure m (sm)” value is recorded as -58 (10) mmHg, the “Fréquence cardiaque Δ (battements/min) T+3 heures m (sm)” value is “+20 (14) battements/min” and the “Pression systolique Δ (mmHg) T+3 heures m (sm)” value was -63 (7) mmHg. Also, in test [3] (128 mg.kg^-1 V.O), the “Fréquence cardiaque Δ (battements/min) T+5 heures m (sm)” value was “+18 (11) battements/min” and the “Pression systolique Δ (mmHg) T+5 heures m (sm)” value is listed as -63 (3) mmHg.

With `CC(C)(C)NCC(O)COc1ccc(NC(=O)Cc2ccsc2)cc1Br` (stereo not shown) [exemple 41, 1-[2-bromo 4-(3-thiénylacétamido)phénoxy] 3-terbutylamino 2-propanol], in test [1], the inhibition at 0.001 mg/kg was -12%, the inhibition at 0.003 mg/kg was -49%, the inhibition at 0.01 mg/kg is -83% and the inhibition at 0.1 mg/kg is -97%. In addition, in test [2], the inhibition at 0.001 mg/kg is -3%, the inhibition at 0.003 mg/kg was determined as 0%, the inhibition at 0.01 mg/kg was -31% and the inhibition at 0.1 mg/kg was -55%. In test [3] (64 mg.kg^-1 V.O), the “Fréquence cardiaque Δ (battements/min) T+1 heure m (sm)” value is listed as “+57 (18) battements/min”, the “Pression systolique Δ (mmHg) T+1 heure m (sm)” value was -44 (14) mmHg, the “Fréquence cardiaque Δ (battements/min) T+3 heures m (sm)” value is listed as “+55 (15) battements/min” and the “Pression systolique Δ (mmHg) T+3 heures m (sm)” value is on record as -30 (10) mmHg. In test [3] (64 mg.kg^-1 V.O), the “Fréquence cardiaque Δ (battements/min) T+5 heures m (sm)” value was “+68 (16) battements/min” and the “Pression systolique Δ (mmHg) T+5 heures m (sm)” value is on record as -33 (12) mmHg.
